We go through 1 molecule from patent publication US20120196858A1, “METHOD OF PROMOTING APOPTOSIS AND INHIBITING METASTASIS” (Poniard Pharmaceuticals ,Inc., priority 2009, published 2012).

Each structure is given as a SMILES string.

For one test, the system named is 4T1 cells. Put plainly: 3D spheroid size assay. The test is classed as cell-based, murine. As to conditions: 72 h. On the procedure: (§1) Anchorage-dependent, spheroid, and soft agar cell growth assays: Cells (2×10^5) were plated per 35 mm well under adherent (tissue culture-treated) and non-adherent conditions (poly-HEMA-coated) in 6-well plates (Costar) in growth media. Between 24 and 168 h, all cells were collected, a single cell suspension was prepared by limited trypsin-EDTA treatment, and viable cells were enumerated by trypan blue staining and counting (ViCell XR, Beckman). For spheroid area determination, cells were imaged after 72 h in phase contrast using an Olympus IX51 microscope. Area was calculated using Image J software (version 1.43). For soft agar assays, 48-well plates were coated with a 1:4 mix of 2% agar (EM Science) in 0.2 ml growth media (bottom layer). 5×10^4 cells were plated per well (in triplicate) in a mixture of 0.3% agar in 0.2 ml growth media (top layer). […] After 10 days, colonies were imaged in phase contrast, enumerated by counting 9 fields (3 fields per well), and total area determined using Image J. For all analyses, experimental points were performed in triplicate and were experiments were repeated at least two times.

In test [1] the test system is ID8 ovarian carcinoma cells. The test can be described thus: ID8 suspended spheroid cell growth. The test is classed as cell-based, murine. On the procedure:
as §1, with “Between 24 and 168 h, all cells were collected, a single cell suspension was prepared by limited trypsin-EDTA treatment, and viable cells were enumerated by trypan blue staining and counting (ViCell XR, Beckman).” left out

The test system of another test is 4T1 tumors. The test can be described thus: Subcutaneous mCherry 4T1 tumor growth in BALB/c mice. The test is classed as in vivo. On the procedure:
Detection of apoptosis in tumors: Fresh tumors were snap-frozen in Optimal Cutting Temperature (OCT) compound (Tissue Tek), thin sectioned ([…]) using a cryomicrotome (Leica 3050S) and mounted onto glass slides. Sections were fixed with 3% paraformaldehyde, permeabilized in PBS containing 0.1% Triton for 3 min, and blocked with 8% goat serum in PBS for 60 min at RT. For activated caspase-3 detection, sections were incubated with cleaved caspase-3 antibody (1:200 diluted in 2% goat serum in PBS) for 18 h at 4° C., washed with PBS, and incubated with fluorescein isothiocyanate conjugated anti-rabbit and TOPRO-3 (blue) for DNA detection. Sections were imaged on a Nikon Eclipse C1 confocal microscope with a 1.4 NA 60× oil objective, with a 30 μm pinhole setting, and analyzed using EZ-C1 3.50 software (Nikon). Tumor apoptosis was also measured by terminal deoxynucleotidyl transferase dUTP nick end labeling (TUNEL) staining using the tetramethylrhodamine (TMR) kit as per the manufacturer's instructions (Roche). Bright field and fluorescent images of whole tumor sections were obtained using Zeiss M2-Bio Stereo microscope equipped with INFINITY1-3C: digital color camera and a 4× objective.
Mouse tumor studies: Six to eight week old female C57B16 and BALB/c mice were obtained from Harlan Laboratories (Indianapolis, Ind.) and housed in pathogen-free conditions, according to the guidelines of the Association for the Assessment and Accreditation for Laboratory Animal Care, International. All in vivo studies were carried out under an approved institutional experimental animal care and use protocol. Growing tumor cells were harvested by limited trypsinization, washed in PBS, and counted using a ViCell XR (Beckman) prior to injection. Cell viability as measured by trypan blue exclusion was >95%. For subcutaneous tumor growth, 1×10^6 mCherry-labeled 4T1 cells in 100 μl PBS were injected into the hindflank of Balb/C mice. […] Control animals received PEG400:PBS injections and at 13 days, tumors were imaged in situ using an Olympus OV100 Intravital Fluorescence Molecular Imaging System, tumors were excised and weighed, half was frozen in OCT, and half was solubilized in protein lysis buffer for FAK phosphorylation analyses. For ID8 ovarian carcinoma tumor growth, 0.8 mL of 1×10^7 ID8 cells in PBS was intraperitoneal injected into C57B16 mice. […] Administration continued ad libitum for 30 days after which mice were euthanized, ascites fluid collected, cells obtained by centrifugation (2000 rpm for 5 min), cell volume measured by pipet, and then solubilized in protein lysis buffer for immunoblotting analyses.

In test [2] the test system is p130Cas tyrosine phosphorylation (pY249, pY410). The test can be described thus: Phospho-specific immunoblotting of p130Cas in 4T1 cells. It is filed as cell-based, murine. The text has this: Immunoblotting: Protein extracts of cells were made using lysis buffer containing 1% Triton X-100, 1% sodium deoxycholate, and 0.1% SDS and were separated by 4-12% SDS-PAGE (sodium dodecyl sulfate polyacrylamide gel electrophoresis) and sequential immunoblotting performed as described in Mitra S K, Lim S T, Chi A, Schlaepfer D D. Intrinsic focal adhesion kinase activity controls orthotopic breast carcinoma metastasis via the regulation of urokinase plasminogen activator expression in a syngeneic tumor model. Oncogene 2006; 25:4429-40. Relative expression levels and phospho-specific antibody reactivity were measured by densitometry analyses of blots using Image J (version 1.42q). Inhibition of FAK and p130Cas tyrosine phosphorylation was quantified by calculating the ratio of pY397 FAK protein to total FAK. Similar analyses were performed for p130Cas using pY410 p130Cas and total p130Cas blot data.

In the next test the test system is MDA-MB-231 tumors. Put plainly: Orthotopic MDA-MB-231 breast carcinoma model. The test is classed as in vivo, NOD/SCID mice. As to conditions: 0.5 mg/ml ad libitum.

Procedure for MDA-MB-231 tumors: Orthotopic breast cancer models: One million 4T1 or MDA-MB-231 cells in 10 μl PBS were injected into the T4 mammary fat pad of 8-10 week old mice using a Hamilton syringe. […] Tumors were measured every 3-4 days with digital vernier calipers and tumor volume (mm^3) was calculated using the formula: V=axb^2/2 (a=length, mm; b=width, m) Body weight was measured weekly to assess toxicity. Lungs, spleen, and primary tumors were surgically removed and weighed. Tumors sections were homogenized in protein lysis buffer for immunoblotting or placed in Optimal Cutting Temperature (OCT) compound (Tissue Tek), frozen in liquid nitrogen, thin sectioned (7 μM) using a cryostat (Leica 3050S), and mounted onto glass slides.
Metastatic tumor burden (number of metastatic lesion or mean pixel volume) was determined and groups (Negligible, Moderate, and High) were separated based upon numbers distribution. After imaging, lungs were fixed in Bouin's solution (Sigma), paraffin embedded, sectioned, and stained with hematoxylin and eosin (H&E) for histological evaluation. Images were acquired using a differential interference contrast-equipped Olympus IX81 inverted microscope and an Olympus DP71 digital color camera using Slidebook (v5.0) software. For MDA-MB-231 tumor metastasis studies, lungs were inflated by intratracheal injection of a 1:1 solution of OCT in sterile water using a 25 gauge needle. Lungs were resected, embedded in OCT, and frozen in liquid nitrogen.

For the molecule `CNC(=O)c1ccccc1Nc1cc(Nc2ccc(N3CCOCC3)cc2OC)ncc1C(F)(F)F` [PND-1186], in the test with 4T1 cells (0.1 μM), the “reduction in average spheroid size” value is reported as approximately 3 fold. The “concentration of maximal effect on spheroid size” value in the test on 4T1 cells was determined as 0.2 µM. In test [1] (0.1, 0.4, and 1.0 μM, 72 h, suspended spheroids), the ID8 cell number entry is on record as “significantly inhibited ID8 cell number”. In test [1] (after 15 days), the “viable ID8 cells” value is listed as “dramatic reduction in viable cells”. Moreover, in the test on 4T1 tumors (30 mg/kg b.i.d., 5 days), the final tumor weight entry is recorded as “slightly reduced final tumor weight but was not significantly different”. Besides, the “cleaved caspase-3 staining in tumors” value in the test with 4T1 tumors (100 mg/kg) is “elevated cleaved caspase-3 staining”. For the same molecule, in the test with 4T1 tumors (100 mg/kg b.i.d., 5 days), the “reduction of final tumor weight” value was determined as 2 fold. Further, the “tumor TUNEL staining” value in the test on 4T1 tumors (30 and 100 mg/kg b.i.d., vs vehicle) was “significantly increased tumor TUNEL staining”. In addition, in test [2] (0.1 μM, 3D spheroids), the “p130Cas pY249 phosphorylation in 4T1 spheroids” value is “potently inhibited” and the “p130Cas pY410 phosphorylation in 4T1 spheroids” value is given as “potently inhibited”. Besides, in test [2] (adherent 4T1 cells, 1 h, PND-1186 to 1 μM), the “p130Cas pY249 phosphorylation” value is reported as “did not affect”. Moreover, in the test with MDA-MB-231 tumors, the “FAK pY397 phosphorylation in MDA-MB-231 tumors” value is on record as “significantly reduce FAK pY397 phosphorylation” and the “reduction of number of metastatic lung lesions” value was more than 3.5 fold. The “tumor size by Day 27 (caliper)” value in the test on MDA-MB-231 tumors (15 days of administration) is “control tumors were significantly larger”. Moreover, the “decrease in final tumor weight” value with MDA-MB-231 tumors (Day 70) is listed as more than 5 fold.
